Measured values taken from patent publication US20050203065A1, “Method of treating ischemia reperfusion injury using adenosine receptor antagonists” (priority 2002, published 2005).

Assays:
[1] = biological target: T1, recombinant canine A1 adenosine receptors (Canis lupus familiaris, UniProt P11616); experiment: Radioligand competition binding, canine A1 receptor (3H-CPX), transfected HEK 293 membranes
T1 construct: expressed in transfected cells
T1 sequence (P11616 1-326): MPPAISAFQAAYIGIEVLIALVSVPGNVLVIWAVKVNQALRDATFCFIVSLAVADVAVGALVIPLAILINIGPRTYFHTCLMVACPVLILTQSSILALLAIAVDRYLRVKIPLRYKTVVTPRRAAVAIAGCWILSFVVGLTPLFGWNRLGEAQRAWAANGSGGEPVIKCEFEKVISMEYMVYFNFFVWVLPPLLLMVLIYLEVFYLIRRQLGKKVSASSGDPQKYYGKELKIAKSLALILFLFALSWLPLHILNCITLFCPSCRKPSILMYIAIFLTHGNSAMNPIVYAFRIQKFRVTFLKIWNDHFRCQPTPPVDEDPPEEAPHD
Experimental: Membranes (40-70 μg membrane protein), radioligands, and varying concentrations of competing ligands were incubated in triplicate in 0.1 ml buffer HE plus 2 units/mL adenosine deaminase for 2.5 hours at 21° C. The radioligands used for competitive binding assays were: [^3H]-8-cyclopentyl-1,3-dipropyxanthine ([^3H]-DPCPX) (NEN, Boston, Mass.) for A1 and A2b adenosine receptors, [^3H]-4-(2-[7-amino-2-(furyl)(1,2,4)triazole(2,3-a)(1,3,5)triazin-5-ylaminoethyly)phenol ([^3H] ZM241385) for A2a adenosine receptors (Tocris, Bristol, UK), and [^125Iodine]-labeled N6-(4-aminobenzyl)-9-(5-(methylcarbonyl)-β-D-ribofuranosyl) adenine ([^125I]-AB-MECA) or [^3H]-R-N^6-phenylisopropyladenosine (H^3R]-R-PIA) for A3 adenosine receptors (both from NEN, Boston, Mass.). Nonspecific binding was measured in the presence of 10 μM 5′N ethylcarboxamidoadenosine (NECA, from RBI-Sigma, Natick, Mass.) for A1 and A2b receptors, or 10 μM xanthine amino congener (XAC, from RBI-Sigma, Natick, Mass.) for A2a receptors. Binding assays were terminated by filtration over Whatman GF/C glass fiber filters using a BRANDEL cell harvester (Gaithersburg, Md.).

[2] = test system: open-chest, barbital-anesthetized dogs; experiment: Protocol I (pretreatment): 60 minutes of coronary artery occlusion and 3 hours of reperfusion in dogs
Experimental: The studies were performed in open-chest, barbital-anesthetized dogs instrumented to measure heart rate, blood pressure, left ventricular pressure, and regional myocardial blood flow (radioactive microspheres). A mechanical occluder was placed around a proximal portion of the left anterior descending coronary artery to produce ischemia and reperfusion. At the end of the experiments, infarct size was determined-by histochemical staining (patent blue dye and triphenyltetrazolium) and expressed as a percentage of the region at risk or as a percentage of the entire left ventricle.
In the pretreatment protocol (see FIG. 1, protocol I), the dogs were subjected to 60 minutes of coronary artery occlusion and 3 hours or reperfusion after which the hearts were removed and infarct size was assessed. […] All of the antagonists were administered at a dose of 1 mg/kg as an i.v. bolus followed by and infusion of 10 μg/kg/min continued until immediately before reperfusion (70 minutes total).

CCCn1c(=O)c2[nH]c(C34CCC(CCC(=O)O)(CC3)CC4)nc2n(CCC)c1=O [BG 9928, 3-[4-(2,6-dioxo-1,3-dipropyl-2,3,6,7-tetrahydro-1H-purin-8-yl)-bicyclo[2.2.2]oct-1-yl]-propionic acid]
Ki [1]: 28.9 ± 4.1 nM
Relationship between infarct size and transmural collateral blood flow compared to control group [2]: shifted downward
Infarct size (percentage of risk region or of left ventricle) compared with control, in words ([2]; 1 mg/kg i.v. bolus + 10 μg/kg/min from 10 minutes before occlusion, 1 mg/kg): significantly smaller
Infarct size reduction ([2]; 1 mg/kg i.v. bolus + 10 μg/kg/min from 10 minutes before occlusion, vs control): 49%
